The values below are quoted from earlier work in patent publication US10293050B2, “Macrolide dosage forms” (Micell Technologies, Inc., priority 2010, dated 2019).

Experiment in data set [1]: not given
This is another data set of the same source.

Experiment in data set [2]: not given
This is another data set of the same source.

The term bioavailability denotes the share of a dose that reaches the circulation, judged against a reference dose that is usually intravenous. As for `CO[C@H]1C[C@@H]2CC[C@@H](C)[C@@](O)(O2)C(=O)C(=O)N2CCCC[C@H]2C(=O)O[C@H]([C@H](C)C[C@@H]2CC[C@@H](O)[C@H](OC)C2)CC(=O)[C@H](C)/C=C(\C)[C@@H](O)[C@@H](OC)C(=O)[C@H](C)C[C@H](C)/C=C/C=C/C=C/1C` [Rapamycin], the protein binding entry is listed as “high protein binding”. The aqueous solubility entry in data set [1] was “poor aqueous solubility”. The bioavailability in data set [2] (Rapamune oral tablets or solution) is < 14%. Besides, the hepatic biotransformation result in data set [2] (in vivo) is “extensive hepatic biotransformation”. Besides, in data set [2] (once daily oral dosing, immunosuppressive dose 2 or 5 mg daily), the blood concentrations is 6 to 50 ng/mL.
